Measurements as given in US20250009742A1 (priority 2021, published 2025).
Where two headings read alike, the source gives them in different places.

Columns and labels:
Protein = Protein (Hepatitis B virus genotype D subtype ayw, UniProt P03146); assay: Protein inhibition rate / EC50 (Table 1, no method described); format: biochemical
intracellular HBV DNA = assay: Real-time PCR for intracellular HBV DNA in HepAD38 cells; format: cell-based; settings: 65 hours treatment
HepAD38 cells = assay: Cell viability assay (EZ-Cytox), cytotoxicity; format: cell-based; settings: 65 hours
Description: (§1) HepAD38 cells were cultured for 2 days in Dulbecco's Modified Eagle's medium (Welgene, LM001-05) supplemented with 10% FBS without tetracycline. […] After 65 hours of treatment, viability was measured using EZ-Cytox cell viability assay kit (Daeil Lab Service) according to the manufacturer's instructions. The absorbance was measured at 450 nm using a spectrophotometer (Spark, Tecan).

[1] = Cell viability assay (EZ-Cytox), cytotoxicity; format: cell-based; settings: human, HepAD38 cells; for viability at 65 h, 100 µM: read-out: Cytotoxicity % Livability (@100 μM)
Description: as §1

[2] = Hepatitis B virus, HePAD38, 65 h

Chain of Protein (P03146 whole entry): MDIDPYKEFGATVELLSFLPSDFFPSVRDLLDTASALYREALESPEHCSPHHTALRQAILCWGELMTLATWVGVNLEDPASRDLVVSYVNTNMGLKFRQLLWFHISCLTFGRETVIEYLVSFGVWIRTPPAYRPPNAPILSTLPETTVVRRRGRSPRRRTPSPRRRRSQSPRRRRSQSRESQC

Compound	EC50 (Protein) [µM]	Protein % inhibition rate (@30 μM) (Protein; @30 μM) [%]	IC50 (intracellular HBV DNA; read-out: IC50) [µM]	CC50 (HepAD38 cells) [µM]	Cytotoxicity % Livability (@100 μM) (HepAD38 cells) [%]	inhibition at 30 µM (Protein) [%]	IC50 (intracellular HBV DNA; [2]) [µM]	CC50 at 65 h [1] [µM]	viability at 65 h, 100 µM [1] [%]	IC50 (intracellular HBV DNA) [µM]
1-((4-bromo-1H-pyrazol-3-yl)methyl)-3-(3-chloro-4-fluorophenyl)-1-(4-methoxyphenyl)urea [Example 61]	4.4	81.8	0.502	98.8	40.8	–	–	–	–	–
3-(3-chloro-4-fluorophenyl)-1-((1-(hydroxymethyl)-5-(trifluoromethyl)-1H-pyrazol-3-yl)methyl)-1-(6-methoxypyridin-3-yl)urea [Example 79]	–	–	0.019	–	18.5	–	–	–	–	–
COc1ccc(N(Cc2n[nH]c3c2CCC3C)C(=O)Nc2ccc(F)c(Cl)c2)cn1 (stereo not drawn) [Example 59, 3-(3-chloro-4-fluorophenyl)-1-(6-methoxypyridin-3-yl)-1-((6-methyl-1,4,5,6-tetrahydrocyclopenta[c]pyrazol-3-yl)methyl)urea]	4	–	–	–	–	94.9	0.013	> 100	91.2	–
CCc1cc(CN(C(=O)Nc2ccc(F)c(Cl)c2)c2ccc(OC)nc2)n[nH]1 [Example 60, 3-(3-chloro-4-fluorophenyl)-1-((5-ethyl-1H-pyrazol-3-yl)methyl)-1-(6-methoxypyridin-3-yl)urea]	3	–	–	–	–	94.7	0.11	> 100	76	–
COc1ccc(N(Cc2n[nH]c3c2CC(C(F)(F)F)CC3)C(=O)Nc2ccc(F)c(Cl)c2)cn1 (stereo not drawn) [Example 62, 3-(3-chloro-4-fluorophenyl)-1-(6-methoxypyridin-3-yl)-1-((5-(trifluoromethyl)-4,5,6,7-tetrahydro-1H-indazol-3-yl)methyl)urea]	6.9	–	–	–	–	100	0.2	86.7	6.5	–
COc1ccc(N(Cc2n[nH]c3c2CCCO3)C(=O)Nc2ccc(F)c(Cl)c2)cn1 [Example 63, 3-(3-chloro-4-fluorophenyl)-1-(6-methoxypyridin-3-yl)-1-((1,4,5,6-tetrahydropyrano[2,3-c]pyrazol-3-yl)methyl)urea]	2.6	–	–	–	–	90.5	0.014	> 100	94.5	–
COc1ccc(N(Cc2cc(OC)[nH]n2)C(=O)Nc2ccc(F)c(Cl)c2)cn1 [Example 64, 3-(3-chloro-4-fluorophenyl)-1-((5-methoxy-1H-pyrazol-3-yl)methyl)-1-(6-methoxypyridin-3-yl)urea]	5.8	–	–	–	–	91.1	0.18	> 100	100	–
Cn1cc(N(Cc2n[nH]c3c2CCC3)C(=O)Nc2ccc(F)c(Cl)c2)ccc1=O [Example 65, 3-(3-chloro-4-fluorophenyl)-1-(1-methyl-6-oxo-1,6-dihydropyridin-3-yl)-1-((1,4,5,6-tetrahydrocyclopenta[c]pyrazol-3-yl)methyl)urea]	> 30	–	–	–	–	53.5	> 1.1	> 100	112	–
COc1ncc(N(Cc2n[nH]c(C(F)F)c2Br)C(=O)Nc2ccc(F)c(Cl)c2)cn1 [Example 81, 1-((4-bromo-5-(difluoromethyl)-1H-pyrazol-3-yl)methyl)-3-(3-chloro-4-fluorophenyl)-1-(2-methoxypyrimidin-5-yl)urea]	–	–	–	> 100	76.0	–	–	–	–	0.0145
COc1ncc(N(Cc2n[nH]c(C(F)F)c2Br)C(=O)Nc2ccc(F)c(Cl)c2)cn1 [Example 98, 1-((4-bromo-5-(difluoromethyl)-1H-pyrazol-3-yl)methyl)-3-(3-chloro-4-fluorophenyl)-1-(2-methoxypyrimidin-5-yl)urea]	–	–	–	–	30.1	–	0.018	> 66	–	–
O=C(Nc1ccc(F)c(Cl)c1)N(Cc1n[nH]c2c1CCC2)c1ccc(O)cc1 [Example 114, 3-(3-chloro-4-fluorophenyl)-1-(4-hydroxyphenyl)-1-((1,4,5,6-tetrahydrocyclopenta[c]pyrazol-3-yl)methyl)urea]	1.6	–	–	–	–	74.6	0.014	54.5	7.9	–
COc1ccc(N(Cc2n[nH]c3c2CCCC3)C(=O)Nc2ccc(F)c(Cl)c2)cc1OC [Example 116, 3-(3-chloro-4-fluorophenyl)-1-(3,4-dimethoxyphenyl)-1-((4,5,6,7-tetrahydro-1H-indazol-3-yl)methyl)urea]	–	–	–	–	–	69.5	> 1.1	> 100	104	–
COc1cc(OC)cc(N(Cc2n[nH]c3c2CCCC3)C(=O)Nc2ccc(F)c(Cl)c2)c1 [Example 117, 3-(3-chloro-4-fluorophenyl)-1-(3,5-dimethoxyphenyl)-1-((4,5,6,7-tetrahydro-1H-indazol-3-yl)methyl)urea]	–	–	–	–	–	7	> 1.1	> 33	3.2	–
O=C(O)c1ccc(N(Cc2n[nH]c3c2CCCC3)C(=O)Nc2ccc(F)c(Cl)c2)cc1 [Example 131, 4-(3-(3-chloro-4-fluorophenyl)-1-((4,5,6,7-tetrahydro-1H-indazol-3-yl)methyl)ureido)benzoic acid]	3.8	–	–	–	–	94.7	> 1.1	> 100	100	–
O=C(Nc1ccc(F)c(Cl)c1)N(Cc1n[nH]c2c1CCCC2)c1ccon1 [Example 132, 3-(3-chloro-4-fluorophenyl)-1-(isoxazol-3-yl)-1-((4,5,6,7-tetrahydro-1H-indazol-3-yl)methyl)urea]	5.3	–	–	–	–	86.9	0.055	> 100	81.9	–
O=C(Nc1ccc(F)c(Cl)c1)N(Cc1n[nH]c2c1CCCC2)c1nncs1 [Example 133, 3-(3-chloro-4-fluorophenyl)-1-((4,5,6,7-tetrahydro-1H-indazol-3-yl)methyl)-1-(1,3,4-thiadiazol-2-yl)urea]	–	–	–	–	–	5	0.11	74.2	4.3	–
O=C(Nc1ccc(F)c(Cl)c1)N(Cc1n[nH]c2c1CCC2)c1ccon1 [Example 134, 3-(3-chloro-4-fluorophenyl)-1-(isoxazol-3-yl)-1-((1,4,5,6-tetrahydrocyclopenta[c]pyrazol-3-yl)methyl)urea]	3.5	–	–	–	–	84.5	0.069	70.3	6.5	–
